Patent US20030039661A1, “Methods, compositions and kits for preserving antigenicity” (priority 2001, published 2003)
Peptide text beside a SMILES is read from it. * marks the point of attachment. Cbz = O=C(OCc1ccccc1)*; CH2F = FC*

Tests used:
granulocytes [1] = assay: Respiratory burst in isolated neutrophils measured by chemiluminescence (opsonized zymosan); format: cell-based; conditions: FIG. 7
Protocol: Respiratory Burst in Isolated Neutrophils Measured by Chemiluminescence
Whole blood anticoagulated with Acid Citrate Dextrose (ACD) with a ratio of 1:5 ACD to blood was collected (150 ml).
Neutrophils were isolated as described above.
Opsonized zymosan was prepared by suspending 125 mg zymosan particles in 25 ml pooled human serum (5 mg/ml) and incubating them for 20 minutes at 37° C. Centrifuge the suspension and resuspend the particles in 7 ml of PBS (18 mg/ml) and stored on ice until use (vortex prior to pipetting).
50 ml of a 250 μM solution of Lucigenin (MW 510.5) was prepared by dissolving 6.4 mg of the solid in 50 ml of PBS-G (+Ca, Mg). 10 μl of PBS-G (+Ca, Mg) to the wells in a white 96 well plate.
50 μl of the 250 μM Lucigenin solution was added to the wells in a white 96 well plate.
Cell preparations were obtained from cell culture (concentration at time zero=5.0×10^6 cells/ml) with PBS-G (+Ca, Mg).
20 μl of the neutrophil suspension was suspended to the appropriate wells and the plate was incubated at 37° C. for three minutes. 10 μl of the opsonized zymosan was added to the wells.
The plate was read on the luminometer (Labsystems Luminoskan, Needham Heights, Mass.) for 14 min. at 37° C. in the kinetic mode and record results using the software DeltaSoft.
The ability to undergo the respiratory burst is another measure of granulocyte viability. The respiratory burst is a physiological response of granulocytes to foreign stimuli such as bacteria. In this example, the method for inducing the respiratory burst utilized opsonized bacterial zymosan. The respiratory burst was measured via chemiluminescence.

[2] = test system: granulocytes in whole blood; assay: Whole blood assay: survival of granulocytes in whole blood by hypodiploid analysis; format: cell-based
Protocol: The following protocol was followed:
200 μl blood sample/2.8 ml 1× lysis solution in a 15 ml polypropylene conical tube.
Add 20 μl/sample anti-CD32-FITC. Incubate 30 minutes on ice in the dark.
Add 3 ml/sample ice-cold 95% EtOH dropwise while vortexing gently.
Resuspend each sample in 50 μl 5 mg/ml RN'ase. Transfer sample to 900 μl/sample.
50 μg/ml Propidium Iodide in 12×75 mm Falcon polystyrene tubes.
Analyze samples by flow cytometry (argon laser) for forward and side scatter and fluorescence.
Survival of granulocytes in whole blood was measured by hypodiploid analysis in a similar fashion to isolated granulocytes via flow cytometry. ICE/ced-3 inhibitors of the present invention maintained survival of granulocytes in whole blood for 96 hours at room temperature as indicated in the table below: […]

granulocytes [3] = assay: Granulocyte survival, hypodiploid nuclei by propidium iodide flow cytometry (isolated granulocytes in culture); format: cell-based; conditions: FIG. 6; for IC50: isolated granulocytes cultured at 37° C., read-out: IC50 for granulocyte survival (hypodiploid DNA)
Protocol: Neutrophil Culture Conditions:
The culture media was as follows: (RPMI 1640; 10% FBS; 10 mM Hepes; 0.2 mM L-glutamine; 25 U/ml penicillin; and […] streptomycin).
Purified neutrophil maintenance was performed under the following conditions: (5×10^6 cells/ml in above culture media; Polystyrene round-bottom 96-well plates; 250 μl/well; and 37° C., 5% CO2/95% air humidified incubator) (Liles et al., Blood 119 (1995) 3181-3188).
Analysis of Hypodiploid Nuclei by Flow Cytometry:
(50 μg/ml propidium iodide (Sigma catalog#P4170); 0.1% Triton X-100; and 0.1 sodium citrate).
Neutrophils were pelleted at 4° C. and the supernate aspirated.
Neutrophils were resuspended in hypotonic fluorochrome solution at a density of 5×10^6 cells/ml. Propidium iodide fluorescence of individual nuclei was evaluated in FL2 and measured on a logarithmic scale while gating on physical parameters in forward and side scatter to exlude cell debris.
At least 10,000 events per sample were collected and the results were evaluated relative to a non-apoptotic neutrophil population. (Liles et al., Blood 119 (1995) 3181-3188).
The present invention provides methods to enhance the ex vivo survival of neutrophils/granulocytes. To establish the ability of compounds to preserve granulocytes in culture, compounds were tested in a number of in vitro assays. One common model to test for effects on granulocyte survival involves separating granulocytes from fresh whole blood, culturing the cells at 37° C. and testing cells for nuclear hypodiploidy at 24 hour intervals (as described in Example 110). The presence of hypodiploid DNA is a measure of apoptosis, and is assessed using a propidium iodide stain via flow cytometry. Compounds of the present invention were incubated with the granulocytes in culture, their effects on granulocyte survival measured, and an IC50 calculated.

motoneurons = conditions: in vitro and in vivo; cited from earlier work
mammary epithelial cells = conditions: in the absence of extracellular matrix; cited from earlier work
T-lymphocyte cell line = conditions: cited from earlier work
[4] = after granulocyte culture for 72 hours
[5] = granulocyte culture for 48 hours

Q: Which “maintenance of the respiratory burst” value (granulocytes [1]; [4]) does the source give for `Cc1c(C(=O)N[C@H](C(=O)NC(CC(=O)O)C(=O)CF)C(C)C)n(C)c2ccccc12` (some centres unmarked) [Example 43, N-[(1.3-dimethylindole-2-carbonyl)valinyl]-3-amino-4-oxo-5-fluoropentanoic Acid] here?
A: Its value is “partially maintained”.

Q: What about the “maintenance of the respiratory burst” value (granulocytes [1]; [5]) of the same compound?
A: Its value is “substantially maintained”.

Q: And the “Percentage of diploid granulocytes in whole blood” value (from here on “Percentage of diploid granulocytes”) ([2]; 96 hours at room temperature)?
A: Its value is 91%.

Q: What about the “Percentage of diploid granulocytes” value ([2]; time zero) of the same compound?
A: The value was 96%.

Q: For `O=C1C[C@H](NC(=O)[C@@H]2Cc3cccc4c3N2C(=O)[C@@H](NC(=O)OCc2ccccc2)CC4)C(O)O1` (some centres unmarked) [Example 78], which melting point is on record?
A: The melting point was 101 to 104 °C.

Q: For `O=C(O)CCC(=O)N[C@H]1CCc2cccc3c2N(C1=O)[C@H](C(=O)N[C@H]1CC(=O)OC1O)C3` (some centres unmarked) [Example 85], which melting point is on record?
A: Its melting point is 145 to 160 °C (dec.).

Q: With `O=C(CCc1ccccc1)N[C@H]1CCc2cccc3c2N(C1=O)[C@H](C(=O)N[C@H]1CC(=O)OC1O)C3` (some centres unmarked) [Example 91] as the compound, how does the melting point read?
A: Its melting point is 78 to 81 °C.

Q: Which melting point does the source give for `CC(=O)N[C@@H](CC(=O)O)C(=O)N[C@H]1CCc2cccc3c2N(C1=O)[C@H](C(=O)N[C@H]1CC(=O)OC1O)C3` (some centres unmarked) [Example 82] here?
A: Its melting point is 160 to 175 °C (dec.).

Q: With `O=C(O)C[C@H](NC(=O)[C@@H]1Cc2cccc3c2N1C(=O)[C@@H](NC(=O)OCc1ccccc1)CC3)C(=O)COP(=O)(c1ccccc1)c1ccccc1` [Example 109, 3-[(2S-cis)-[5-benzyloxycarbonylamino-1,2,3,4,5,6,7-hexahydro-4-oxoazepino[3,2,1-hi]indole-2-carbonyl]amino]-5-(diphenylphosphinyl)oxy-4-oxo-pentanoic Acid] as the compound, how does the melting point read?
A: Its melting point is 109 to 111 °C (dec.).

Q: For `COC(=O)C[C@H](NC(=O)[C@H](C)NC(=O)[C@@H](NC(=O)OCc1ccccc1)C(C)C)C(=O)CF` [zVADfmk, reference compound] (Cbz-Val-Ala-Asp(OMe)-CH2F), which “maintenance of the respiratory burst” value (granulocytes [1]; time not stated) is on record?
A: The value was “did not maintain”.

Q: And the “effect on improving granulocyte survival” value (granulocytes [3]; at 48 hours)?
A: Its value is “weak effect”.

Q: With `O=C1C[C@H](NC(=O)[C@@H]2Cc3cccc4c3N2C(=O)[C@@H](NC(=O)c2cccc3ccccc23)CC4)C(O)O1` (some centres unmarked) [Example 97] as the compound, how does the melting point read?
A: The melting point was 202 to 203 °C (dec.).

Q: Which death of motoneurons (motoneurons) does the source give for acetyl-AD-aldehyde here?
A: The death of motoneurons was “blocked”.

Q: Which “cell death of mammary epithelial cells” value (mammary epithelial cells) does the source give for `CC(C)(C)OC(=O)N[C@@H](CC(=O)OCc1ccccc1)C(=O)CCl` [Boc-D-(benzyl) chloromethylketone] here?
A: Its value is “prevented”.

Q: Which IC50 (granulocytes [3]) does the source give for `O=C(O)CC(NC(=O)[C@@H]1Cc2cccc3c2N1C(=O)[C@@H](NC(=O)OCc1ccccc1)CC3)C(=O)CF` (some centres unmarked) [Example 106] here?
A: The IC50 was less than 5 µM.

Q: Which melting point does the source give for `O=C1C[C@H](NC(=O)[C@@H]2Cc3cccc4c3N2C(=O)[C@@H](NC(=O)c2ccccc2)CC4)C(O)O1` (some centres unmarked) [Example 100] here?
A: Its melting point is 204 to 205 °C (dec.).

Q: For `O=C1C[C@H](NC(=O)C2CCc3cccc4c3N2C(=O)[C@@H](NC(=O)OCc2ccccc2)CC4)C(O)O1` (some centres unmarked) [Example 103], which melting point is on record?
A: The melting point was 120 to 123 °C (dec.).

Q: Which melting point does the source give for `O=C(O)C[C@H](NC(=O)OCc1ccccc1)C(=O)N[C@H]1CCc2cccc3c2N(C1=O)[C@H](C(=O)N[C@H]1CC(=O)OC1O)C3` (some centres unmarked) [Example 88] here?
A: The melting point was 140 to 144 °C (dec.).

Q: With `Cc1c(C(=O)N[C@H](C(=O)NC(CC(=O)O)C(=O)COC(=O)c2c(Cl)cccc2Cl)C(C)C)n(C)c2ccccc12` (some centres unmarked) [Example 70, N-[N-(1,3-dimethyl-indole-2-carbonyl)-valinyl]-3-amino-5-(2,6-dichlorobenzoyl)oxy-4-oxo-pentanoic Acid] as the compound, how does the “maintenance of the respiratory burst” value (granulocytes [1]; [4]) read?
A: Its value is “partially maintained”.

Q: What about the “maintenance of the respiratory burst” value (granulocytes [1]; [5]) of the same compound?
A: The value was “substantially maintained”.

Q: And the “Percentage of diploid granulocytes” value ([2]; 96 hours at room temperature)?
A: Its value is 89%.

Q: What about the “Percentage of diploid granulocytes” value ([2]; time zero) of the same compound?
A: The value was 96%.

Q: And the IC50 (granulocytes [3])?
A: Its IC50 is less than 5 µM.

Q: For `CC(=O)N[C@@H](CC(=O)O)C(=O)N[C@@H](CCC(=O)O)C(=O)N[C@H](C(=O)N[C@H](C=O)CC(=O)O)C(C)C` [acetyl-DEVD-aldehyde], which anti-Fas induced apoptosis (T-lymphocyte cell line) is on record?
A: The anti-Fas induced apoptosis was “inhibited”.

Q: For `CC(=O)N[C@@H](Cc1ccc(O)cc1)C(=O)N[C@H](C(=O)N[C@@H](C)C(=O)N[C@@H](CC(=O)O)C(=O)CCl)C(C)C` [acetyl-YVAD-chloromethylketone], which death of motoneurons (motoneurons) is on record?
A: The death of motoneurons was “blocked”.

Q: For `CC(=O)N[C@H]1CCc2cccc3c2N(C1=O)[C@H](C(=O)N[C@H]1CC(=O)OC1O)C3` (some centres unmarked) [Example 94], which melting point is on record?
A: The melting point was 210 to 215 °C (dec.).
